Here are results for 22 compounds from US8178552B2, “7-Azaindole derivatives and their use in the inhibition of c-Jun N-terminal kinase” (Eisai R&D Management Co., Ltd., priority 2008, dated 2012).

A value given as a limit tells only on which side of the number the result lay.

One assay addresses JNK3 (Homo sapiens, UniProt P53779). The assay is described as follows: JNK3 SPA assay. Format: biochemical. The following applies: 3.33 μM ATP, GST-c-Jun substrate; read-out: IC50 against JNK3. Put shortly:
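Radiometric SPA using GST-c-Jun with [γ-33P]ATP in 25 mM HEPES pH 7.5 and 10 mM Mg acetate; the substrate solution held 3.33 µM ATP (JNK2/3) or 2 µM ATP (JNK1). Reactions ran 30 min at room temperature and were stopped with glutathione SPA beads plus 40 mM ATP. IC50 is the concentration halving c-Jun phosphorylation versus control.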

The subject of the next assay is c-Jun phosphorylation. The assay is described as follows: LPS-induced c-Jun phosphorylation in spleen of mice (HTRF). Format: in vivo, male C57/B16 mice. The conditions noted are these: Mus musculus, po; 20 mg/kg p.o. 30 min before LPS 10 mg/kg i.p.; 1 hour after LPS; versus vehicle-treated animals; read-out: Percentage reduction in the level of P-c-Jun in spleen. On the procedure:
(§1) The studies were carried out in male C57/B16 mice. Compounds (20 mg/kg; p.o.) were administered 30 minutes before injection of lipopolysaccharide (LPS). LPS was administered intraperitoneally at a dose of 10 mg/kg. Animals were sacrificed 1 hour following LPS injection. Blood was collected into heparinized tubes for measurement of plasma TNFα levels and spleens were collected for the measurement of c-Jun phosphorylation. Plasma TNFα was measured using an ELISA kit purchased from R&D systems. Spleens were homogenised, extracted in high salt (250 mM NaCl) lysis buffer with phosphatase inhibitors and c-Jun phosphorylation was measured using HTRF. The suppressive effect of compounds was calculated as the percentage reduction of the TNFα level in plasma and P-c-Jun level in spleen as compared with the vehicle-treated animals.

A further assay concerns TNFα. Nature of the assay: LPS-induced TNFα suppression in mice (plasma TNFα, ELISA). Format: in vivo, male C57/B16 mice. The following applies: Mus musculus, po; 20 mg/kg p.o. 30 min before LPS 10 mg/kg i.p.; 1 hour after LPS; versus vehicle-treated animals; read-out: Percentage reduction in the level of TNFα in plasma. On the procedure:
as §1

Sequence of JNK3 (P53779 whole entry, species assumed): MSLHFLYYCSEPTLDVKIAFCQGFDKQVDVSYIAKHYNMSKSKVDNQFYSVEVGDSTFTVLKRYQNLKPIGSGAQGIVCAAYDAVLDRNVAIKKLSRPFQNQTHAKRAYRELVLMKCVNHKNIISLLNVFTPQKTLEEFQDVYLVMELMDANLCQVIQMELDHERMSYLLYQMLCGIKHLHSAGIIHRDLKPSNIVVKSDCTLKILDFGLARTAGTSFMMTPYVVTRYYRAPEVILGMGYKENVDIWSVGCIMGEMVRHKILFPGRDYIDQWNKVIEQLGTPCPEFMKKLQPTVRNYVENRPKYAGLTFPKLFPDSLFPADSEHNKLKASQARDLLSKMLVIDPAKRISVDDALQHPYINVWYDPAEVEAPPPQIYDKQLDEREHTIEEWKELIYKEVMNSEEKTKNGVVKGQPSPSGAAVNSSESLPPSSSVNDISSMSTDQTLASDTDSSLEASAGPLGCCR

Take `CC1CCC(c2cnc3[nH]cc(-c4cnn(C)c4)c3c2)CC1` (mixture of isomers) [Compound I-3, 3-(1-methyl-1H-pyrazol-4-yl)-5-(4-methylcyclohexyl)-1H-pyrrolo[2,3-b]pyridine]: the IC50 on JNK3 is 58 nM. Further, the inhibition in vivo at 20 mg/kg was 0% with c-Jun phosphorylation and 60% with TNFα.

In the case of `Cn1cc(-c2c[nH]c3ncc([C@H]4CC[C@@H](N5CCOCC5)CC4)cc23)cn1` [Compound I-7, 4-((1s,4s)-4-(3-(1-methyl-1H-pyrazol-4-yl)-1H-pyrrolo[2,3-b]pyridin-5-yl)cyclohexyl)morpholine], the IC50 at JNK3 was 60 nM. Moreover, the inhibition in vivo at 20 mg/kg in the assay with c-Jun phosphorylation stood at 18%; with TNFα, 63%.

As to `Cn1cc(-c2c[nH]c3ncc(C4=CCCC4)cc23)cn1` [Compound I-10, 5-cyclopentenyl-3-(1-methyl-1H-pyrazol-4-yl)-1H-pyrrolo[2,3-b]pyridine], the IC50 on JNK3 stood at 17 nM. The values for the inhibition in vivo at 20 mg/kg with c-Jun phosphorylation and with TNFα were 75% and 62%, respectively.

In the case of `Cn1cc(-c2c[nH]c3ncc(C4CCCCC4)cc23)cn1` [Compound I-16, 5-cyclohexyl-3-(1-methyl-1H-pyrazol-4-yl)-1H-pyrrolo[2,3-b]pyridine], the IC50 at JNK3 stood at 40 nM. Besides, the inhibition in vivo at 20 mg/kg in the assay with c-Jun phosphorylation was 20%; in the assay on TNFα, 45%.

Consider `Cn1cc(-c2c[nH]c3ncc(C4CCC5(CC4)OCCO5)cc23)cn1` [Compound I-19, 5-(1,4-Dioxa-spiro[4.5]dec-8-yl)-3-(1-methyl-1H-pyrazol-4-yl)-1H-pyrrolo[2,3-b]pyridine], for which, at JNK3, the IC50 is 25 nM. The inhibition in vivo at 20 mg/kg with c-Jun phosphorylation came out at 32%; in the assay with TNFα, 9%.

For `Cn1cc(-c2c[nH]c3ncc([C@H]4CC[C@@H](N5CCCC5)CC4)cc23)cn1` [Compound I-23, 3-(1-methyl-1H-pyrazol-4-yl)-5-((1s,4s)-4-(pyrrolidin-1-yl)cyclohexyl)-1H-pyrrolo[2,3-b]pyridine], the IC50 on JNK3 is 126 nM. The values for the inhibition in vivo at 20 mg/kg with c-Jun phosphorylation and in the assay on TNFα were 2% and 61%, respectively.

Regarding `Cn1cc(-c2c[nH]c3ncc([C@H]4CC[C@H](N5CCCC5)CC4)cc23)cn1` [Compound I-24, 3-(1-methyl-1H-pyrazol-4-yl)-5-((1r,4r)-4-(pyrrolidin-1-yl)cyclohexyl)-1H-pyrrolo[2,3-b]pyridine], the IC50 on JNK3 stood at 83 nM. Further, the inhibition in vivo at 20 mg/kg worked out at 23% with c-Jun phosphorylation and 57% with TNFα.

On to `CN1CCN([C@H]2CC[C@H](c3cnc4[nH]cc(-c5cnn(C)c5)c4c3)CC2)CC1` [Compound I-25, 3-(1-methyl-1H-pyrazol-4-yl)-5-((1r,4r)-4-(4-methylpiperazin-1-yl)cyclohexyl)-1H-pyrrolo[2,3-b]pyridine], for which, at JNK3, the IC50 came out at 90 nM. Also, the inhibition in vivo at 20 mg/kg in the assay on c-Jun phosphorylation came to 25%; in the assay on TNFα it was 80%.

Take `CN1CCN([C@H]2CC[C@@H](c3cnc4[nH]cc(-c5cnn(C)c5)c4c3)CC2)CC1` [Compound I-26, 3-(1-methyl-1H-pyrazol-4-yl)-5-((1s,4s)-4-(4-methylpiperazin-1-yl)cyclohexyl)-1H-pyrrolo[2,3-b]pyridine]: at JNK3, the IC50 worked out at 94 nM. The inhibition in vivo at 20 mg/kg in the assay on c-Jun phosphorylation worked out at 16%; in the assay with TNFα, 71%.

Take `Cn1cc(-c2c[nH]c3ncc(C4=CC5CC(=O)CC(C4)C5)cc23)cn1` (stereo not shown) [Compound I-145, 7-(3-(1-methyl-1H-pyrazol-4-yl)-1H-pyrrolo[2,3-b]pyridin-5-yl)bicyclo[3.3.1]non-6-en-3-one]: the IC50 on JNK3 is 167 nM.

Consider `Cn1cc(-c2c[nH]c3ncc(C4=CC5CC(O)CC(C4)C5)cc23)cn1` (stereo not shown) [Compound I-146, 7-(3-(1-methyl-1H-pyrazol-4-yl)-1H-pyrrolo[2,3-b]pyridin-5-yl)bicyclo[3.3.1]non-6-en-3-ol], for which the IC50 at JNK3 was 832 nM.

For `Cn1cc(-c2c[nH]c3ncc(C4=CC5CC(O)CC(C4)C5)cc23)cn1` (stereo not shown) [Compound I-147, 7-(3-(1-methyl-1H-pyrazol-4-yl)-1H-pyrrolo[2,3-b]pyridin-5-yl)bicyclo[3.3.1]non-6-en-3-ol], the IC50 on JNK3 was > 1000 nM.

Take `CN1CCN(C2CC3C=C(c4cnc5[nH]cc(-c6cnn(C)c6)c5c4)CC(C3)C2)CC1` (stereo not drawn) [Compound I-149, trans-3-(1-methyl-1H-pyrazol-4-yl)-5-(7-(4-methylpiperazin-1-yl)bicyclo[3.3.1]non-2-en-3-yl)-1H-pyrrolo[2,3-b]pyridine]: at JNK3, the IC50 was > 500 nM.

In the case of `CN1C2CC3CC(C2)C(O)C1(c1cnc2[nH]cc(-c4cnn(C)c4)c2c1)C3` (stereo not shown) [Compound I-153], the IC50 at JNK3 stood at 288 nM.

Take `Cn1cc(-c2c[nH]c3ncc([C@@H]4C[C@H]5O[C@@H]4CC5C#N)cc23)cn1` (stereo partly drawn) [Compound I-157, (1R,4R,5S)-5-(3-(1-methyl-1H-pyrazol-4-yl)-1H-pyrrolo[2,3-b]pyridin-5-yl)-7-oxabicyclo[2.2.1]heptane-2-carbonitrile]: at JNK3, the IC50 worked out at 295 nM.

Turning to `Cn1cc(-c2c[nH]c3ncc([C@]4(F)CC[C@@H](N5CCOCC5)CC4)cc23)cn1` [Compound I-162, 4-((1s,4s)-4-fluoro-4-(3-(1-methyl-1H-pyrazol-4-yl)-1H-pyrrolo[2,3-b]pyridin-5-yl)cyclohexyl)morpholine], at JNK3, the half-inhibitory concentration (IC50) was > 2000 nM.

In the case of `CO[C@]1(c2cnc3[nH]cc(-c4cnn(C)c4)c3c2)CC[C@H](N2CCOCC2)CC1` [Compound I-163, 4-((1s,4s)-4-methoxy-4-(3-(1-methyl-1H-pyrazol-4-yl)-1H-pyrrolo[2,3-b]pyridin-5-yl)cyclohexyl)morpholine], the IC50 on JNK3 was determined as 1480 nM.

On to `Cn1cc(-c2c[nH]c3ncc(C4=C[C@H]5O[C@@H]4C[C@H]5C#N)cc23)cn1` [I-155 endo, (1R,2S,4R)-5-(3-(1-methyl-1H-pyrazol-4-yl)-1H-pyrrolo[2,3-b]pyridin-5-yl)-7-oxabicyclo[2.2.1]hept-5-ene-2-carbonitrile], for which, at JNK3, the half-maximal inhibitory concentration (IC50) was 174 nM.

On to `Cn1cc(-c2c[nH]c3ncc(C4=C[C@H]5O[C@@H]4C[C@@H]5C#N)cc23)cn1` [I-155 exo, (1R,2R,4R)-5-(3-(1-methyl-1H-pyrazol-4-yl)-1H-pyrrolo[2,3-b]pyridin-5-yl)-7-oxabicyclo[2.2.1]hept-5-ene-2-carbonitrile], for which the IC50 at JNK3 stood at 219 nM.

For “Mixture of 3-(1-methyl-1H-pyrazol-4-yl)-5-(3,5,5-trimethylcyclohex-1-enyl)-1H-pyrrolo[2,3-b]pyridine and 3-(1-methyl-1H-pyrazol-4-yl)-5-(3,3,5-trimethylcyclohex-1-enyl)-1H-pyrrolo[2,3-b]pyridine [Compound I-68]”, the IC50 at JNK3 was determined as 760 nM.

As for “Mixture of 3-(1-methyl-1H-pyrazol-4-yl)-5-(5-methylcyclohex-1-enyl)-1H-pyrrolo[2,3-b]pyridine and 3-(1-methyl-1H-pyrazol-4-yl)-5-(3-methylcyclohex-1-enyl)-1H-pyrrolo[2,3-b]pyridine [Compound I-29]”, the IC50 on JNK3 came to 98 nM.

Take “Mixture of 3-(1-methyl-1H-pyrazol-4-yl)-5-(6-methylcyclohex-1-enyl)-1H-pyrrolo[2,3-b]pyridine and 3-(1-methyl-1H-pyrazol-4-yl)-5-(2-methylcyclohex-1-enyl)-1H-pyrrolo[2,3-b]pyridine [Compound I-30]”: the IC50 on JNK3 was 170 nM.
